The source of these data is PubChem BioAssay (NCI).

Where “and” joins values, the source holds several entries; their conditions need not be identical. Equal entries are not always repeated.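 Compound exposure: 48 hours, 5 concentrations, 96-well plates. At the GI50, growth is halved. TGI denotes the concentration required for complete inhibition of growth.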 Some results are limits rather than exact numbers.

Among the test systems are A498 renal; A549 NSCLC; CAKI-1 renal; HT29 colon; OVCAR-4 ovarian; SF-268 CNS; SF-539 CNS; SK-MEL-2 melanoma; SK-MEL-28 melanoma; SK-MEL-5 melanoma.
Common to all, as to experiment: growth of human tumour cells (NCI), 48 h

For `CCOc1ccc(Nc2c3ccccc3nc3ccccc23)cc1`, the GI50 was 0.307 µM and 0.332 µM in the experiment on A498 renal; 0.734 µM and 0.887 µM with A549 NSCLC; 0.359 µM and 0.376 µM in the experiment with CAKI-1 renal; 0.307 µM and 0.264 µM with HT29 colon; 0.748 µM and 1.35 µM in the experiment with OVCAR-4 ovarian; 0.709 µM and 0.526 µM in the experiment with SF-268 CNS. Further, the GI50 in the experiment with SF-539 CNS was 0.51 µM and 0.419 µM; in the experiment with SK-MEL-2 melanoma it was 0.402 µM and 0.413 µM; in the experiment with SK-MEL-28 melanoma, 0.855 µM and 0.378 µM; in the experiment on SK-MEL-5 melanoma, 0.343 µM and 0.371 µM. The TGI was 6.81 µM and 3.02 µM in the experiment with A498 renal; 9.63 µM and 12.5 µM in the experiment with A549 NSCLC; 3.32 µM and 1.75 µM with CAKI-1 renal; 1.26 µM and 1.08 µM in the experiment with HT29 colon; 7.36 µM and 10.8 µM in the experiment with OVCAR-4 ovarian; 19.1 µM and 13.9 µM in the experiment on SF-268 CNS. Besides, the TGI with SF-539 CNS is 11.8 µM and 10.2 µM; with SK-MEL-2 melanoma, 3.76 µM and 1.69 µM; with SK-MEL-28 melanoma it was 6.51 µM and 2.32 µM; in the experiment with SK-MEL-5 melanoma, 1.33 µM and 1.45 µM.
For the molecule `Nc1cc(-c2ccc(Cl)cc2)nn1-c1nnc(/C=C/c2ccco2)c(=O)[nH]1`, the GI50 with A498 renal is 1.78 µM; in the experiment with A549 NSCLC, 3.46 µM; with CAKI-1 renal it was 0.842 µM; in the experiment on HT29 colon, 6.61 µM; in the experiment on OVCAR-4 ovarian, 2.64 µM; in the experiment on SF-268 CNS it was 3.37 µM. Moreover, the GI50 is 4.4 µM in the experiment with SF-539 CNS, 19 µM in the experiment with SK-MEL-2 melanoma, 6.42 µM in the experiment with SK-MEL-28 melanoma and 3.37 µM with SK-MEL-5 melanoma. In addition, the TGI with A498 renal was 6.9 µM; in the experiment on A549 NSCLC, 22.2 µM; in the experiment with CAKI-1 renal, 7.04 µM; in the experiment on HT29 colon, more than 100 µM; in the experiment on OVCAR-4 ovarian it was 13.4 µM; in the experiment with SF-268 CNS, 39 µM. Besides, the TGI is 22.4 µM in the experiment on SF-539 CNS, more than 88.3 µM in the experiment with SK-MEL-2 melanoma, 61 µM in the experiment with SK-MEL-28 melanoma and 20.2 µM in the experiment with SK-MEL-5 melanoma.
Turning to `CC(=O)[CH-]C(=O)c1ccccc1.CC(=O)[CH-]C(=O)c1ccccc1.CC1(C)OCC(C2OC3OC(C)(C)OC3C2[O-])O1.CC[O-].[Ti+4]` (stereo not given), the GI50 with A498 renal is 15.3 µM; with A549 NSCLC it was 16.6 µM; in the experiment on CAKI-1 renal, 22.8 µM; in the experiment with HT29 colon it was 13.7 µM; in the experiment with OVCAR-4 ovarian it was 14.2 µM; in the experiment with SF-268 CNS, 13.1 µM. The GI50 was 13.3 µM in the experiment with SF-539 CNS, 12 µM with SK-MEL-2 melanoma, 11.6 µM with SK-MEL-28 melanoma and 10.8 µM with SK-MEL-5 melanoma. The TGI with A498 renal was determined as 28.6 µM; with A549 NSCLC, 40 µM; in the experiment with CAKI-1 renal, 40.9 µM; in the experiment on HT29 colon, 29.3 µM; in the experiment with OVCAR-4 ovarian, 32.2 µM; in the experiment on SF-268 CNS, 29 µM. Further, the TGI in the experiment on SF-539 CNS worked out at 27.4 µM; with SK-MEL-2 melanoma it was 27.8 µM; with SK-MEL-28 melanoma it was 25.1 µM; in the experiment with SK-MEL-5 melanoma it was 23.9 µM.
In the case of `Cc1cccc(N(CC(=O)O)S(=O)(=O)c2ccccc2)c1`, the TGI in the experiment with A498 renal, in the experiment on A549 NSCLC, in the experiment on CAKI-1 renal, in the experiment on HT29 colon, with OVCAR-4 ovarian and with SF-268 CNS was more than 100 µM each time. The TGI with SF-539 CNS, with SK-MEL-2 melanoma, with SK-MEL-28 melanoma and with SK-MEL-5 melanoma was more than 100 µM each time.
On to `O=C(O)c1ccccc1C(=O)c1ccc2c(c1)Cc1ccccc1-2`, for which the TGI in the experiment with A498 renal, with A549 NSCLC, with CAKI-1 renal, in the experiment on HT29 colon, in the experiment with OVCAR-4 ovarian and with SF-268 CNS was more than 100 µM each time. The TGI with SF-539 CNS, with SK-MEL-2 melanoma, in the experiment with SK-MEL-28 melanoma and in the experiment on SK-MEL-5 melanoma was more than 100 µM each time.
On to `COC(=O)C1C(=O)N(CCc2c[nH]c3ccccc23)C[C@@H]2CCC(=O)C[C@H]12` (stereo not given in full), for which the TGI in the experiment on A498 renal, in the experiment with A549 NSCLC, with CAKI-1 renal, with HT29 colon, with OVCAR-4 ovarian and with SF-268 CNS was more than 100 µM in each case. For the same molecule, the TGI in the experiment on SF-539 CNS, with SK-MEL-2 melanoma, in the experiment on SK-MEL-28 melanoma and in the experiment with SK-MEL-5 melanoma was more than 100 µM throughout.
Take `COc1cc2nc(-c3ccc(C(F)(F)F)cc3)cc(OCCCN3CCCC3)c2cc1OC`: the GI50 was 1.07 µM in the experiment with A498 renal; 0.685 µM in the experiment on A549 NSCLC; 0.245 µM with CAKI-1 renal; 0.429 µM in the experiment on HT29 colon; 3.1 µM with OVCAR-4 ovarian; 3.5 µM in the experiment on SF-268 CNS. The GI50 with SF-539 CNS was 2.56 µM; in the experiment on SK-MEL-2 melanoma, 3.41 µM; in the experiment with SK-MEL-28 melanoma it was 1.69 µM; in the experiment on SK-MEL-5 melanoma, 0.51 µM. In addition, the TGI in the experiment on A498 renal was 4.31 µM; with A549 NSCLC it was more than 42.7 µM; in the experiment with CAKI-1 renal, 14 µM; in the experiment with HT29 colon it was 5.85 µM; in the experiment on OVCAR-4 ovarian, more than 86.7 µM; in the experiment on SF-268 CNS it was more than 48.1 µM. Further, the TGI with SF-539 CNS was found to be 12.6 µM; in the experiment with SK-MEL-2 melanoma, 11.2 µM; with SK-MEL-28 melanoma, 5.65 µM; with SK-MEL-5 melanoma it was 1.28 µM.
Turning to `Cc1ccc(C)c(N2C(=O)C(=O)C(c3nc4ccccc4s3)C(=Nc3cccc4c(=O)[nH][nH]c(=O)c34)C2=O)c1` (stereo not given), the TGI in the experiment on A498 renal, with A549 NSCLC, in the experiment with CAKI-1 renal, in the experiment with HT29 colon, in the experiment with OVCAR-4 ovarian and with SF-268 CNS was more than 100 µM throughout. The TGI in the experiment on SF-539 CNS, in the experiment with SK-MEL-2 melanoma, with SK-MEL-28 melanoma and in the experiment with SK-MEL-5 melanoma was more than 100 µM in each case.
`CC(C)(C)OC(=O)NC1CCCC1=O` (stereo not given): the TGI in the experiment on A498 renal, with A549 NSCLC, in the experiment on CAKI-1 renal, in the experiment on HT29 colon, in the experiment with OVCAR-4 ovarian and in the experiment with SF-268 CNS was more than 100 µM in each case. The TGI in the experiment on SF-539 CNS, in the experiment with SK-MEL-2 melanoma, with SK-MEL-28 melanoma and in the experiment on SK-MEL-5 melanoma was more than 100 µM each time.
For the molecule `CCOC(OC1=C(C#N)CCCC1)C(CC)[Se]c1ccccc1` (stereo not given), the TGI in the experiment on A498 renal was more than 100 µM; in the experiment with A549 NSCLC, more than 100 µM; in the experiment with CAKI-1 renal, more than 100 µM; in the experiment on HT29 colon, 73.6 µM; with OVCAR-4 ovarian, 43.2 µM; in the experiment with SF-268 CNS, 27.8 µM. Further, the TGI in the experiment on SF-539 CNS was 31.7 µM; in the experiment on SK-MEL-2 melanoma it was 80.8 µM; in the experiment on SK-MEL-28 melanoma it was 61.8 µM; with SK-MEL-5 melanoma it was 33.5 µM.
Consider `O=C1c2cccc3cccc(c23)C(=O)N1O`, for which the TGI in the experiment with A498 renal, in the experiment on A549 NSCLC, in the experiment on CAKI-1 renal, with HT29 colon, with OVCAR-4 ovarian and in the experiment on SF-268 CNS was more than 100 µM throughout. Moreover, the TGI in the experiment on SF-539 CNS, in the experiment with SK-MEL-2 melanoma, in the experiment on SK-MEL-28 melanoma and in the experiment with SK-MEL-5 melanoma was more than 100 µM each time.
Regarding `C=CCNC(=O)N(CCC)CCCC(NC(C)=O)C(=O)NCc1ccccc1` (stereo not given), the TGI in the experiment on A498 renal, in the experiment with A549 NSCLC, in the experiment with CAKI-1 renal, with HT29 colon, with OVCAR-4 ovarian and in the experiment with SF-268 CNS was more than 100 µM throughout. Also, the TGI in the experiment with SF-539 CNS, in the experiment on SK-MEL-2 melanoma, in the experiment with SK-MEL-28 melanoma and in the experiment on SK-MEL-5 melanoma was more than 100 µM throughout.
Consider `Cc1cccc(C)c1N1C(=O)C(=O)C(c2nc3ccccc3s2)/C(=N/NC(=O)NN)C1=O` (stereo not given), for which the TGI in the experiment with A498 renal, with A549 NSCLC, in the experiment with CAKI-1 renal, with HT29 colon, in the experiment with OVCAR-4 ovarian and with SF-268 CNS was more than 100 µM each time. Besides, the TGI in the experiment on SF-539 CNS, in the experiment on SK-MEL-2 melanoma, in the experiment on SK-MEL-28 melanoma and with SK-MEL-5 melanoma was more than 100 µM in each case.
